target: Isoform 2 of Hepatocyte growth factor receptor (2) (Homo sapiens, UniProt P08581); test: c-Met Z-LYTE Assay; conditions: pH 7; 25 °C
Method: The c-Met kinase activity of five target compounds and three positive compounds were evaluated using standard Z-LYTE Assays (fluorescence resonance energy transfer, FRET). The test compounds or reference controls were dissolved indimethyl sulfoxide (DMSO) as stock solution. […] 5 µL of the detectionreagents A (Invitrogen) was added at final concentrations of 64-fold dilution. The plates were incubated at room temperature for 60 min and then read in the Envision plate reader (PerkinElmer).

Isoform 2 of Hepatocyte growth factor receptor (2), sequence (P08581 as listed by the source): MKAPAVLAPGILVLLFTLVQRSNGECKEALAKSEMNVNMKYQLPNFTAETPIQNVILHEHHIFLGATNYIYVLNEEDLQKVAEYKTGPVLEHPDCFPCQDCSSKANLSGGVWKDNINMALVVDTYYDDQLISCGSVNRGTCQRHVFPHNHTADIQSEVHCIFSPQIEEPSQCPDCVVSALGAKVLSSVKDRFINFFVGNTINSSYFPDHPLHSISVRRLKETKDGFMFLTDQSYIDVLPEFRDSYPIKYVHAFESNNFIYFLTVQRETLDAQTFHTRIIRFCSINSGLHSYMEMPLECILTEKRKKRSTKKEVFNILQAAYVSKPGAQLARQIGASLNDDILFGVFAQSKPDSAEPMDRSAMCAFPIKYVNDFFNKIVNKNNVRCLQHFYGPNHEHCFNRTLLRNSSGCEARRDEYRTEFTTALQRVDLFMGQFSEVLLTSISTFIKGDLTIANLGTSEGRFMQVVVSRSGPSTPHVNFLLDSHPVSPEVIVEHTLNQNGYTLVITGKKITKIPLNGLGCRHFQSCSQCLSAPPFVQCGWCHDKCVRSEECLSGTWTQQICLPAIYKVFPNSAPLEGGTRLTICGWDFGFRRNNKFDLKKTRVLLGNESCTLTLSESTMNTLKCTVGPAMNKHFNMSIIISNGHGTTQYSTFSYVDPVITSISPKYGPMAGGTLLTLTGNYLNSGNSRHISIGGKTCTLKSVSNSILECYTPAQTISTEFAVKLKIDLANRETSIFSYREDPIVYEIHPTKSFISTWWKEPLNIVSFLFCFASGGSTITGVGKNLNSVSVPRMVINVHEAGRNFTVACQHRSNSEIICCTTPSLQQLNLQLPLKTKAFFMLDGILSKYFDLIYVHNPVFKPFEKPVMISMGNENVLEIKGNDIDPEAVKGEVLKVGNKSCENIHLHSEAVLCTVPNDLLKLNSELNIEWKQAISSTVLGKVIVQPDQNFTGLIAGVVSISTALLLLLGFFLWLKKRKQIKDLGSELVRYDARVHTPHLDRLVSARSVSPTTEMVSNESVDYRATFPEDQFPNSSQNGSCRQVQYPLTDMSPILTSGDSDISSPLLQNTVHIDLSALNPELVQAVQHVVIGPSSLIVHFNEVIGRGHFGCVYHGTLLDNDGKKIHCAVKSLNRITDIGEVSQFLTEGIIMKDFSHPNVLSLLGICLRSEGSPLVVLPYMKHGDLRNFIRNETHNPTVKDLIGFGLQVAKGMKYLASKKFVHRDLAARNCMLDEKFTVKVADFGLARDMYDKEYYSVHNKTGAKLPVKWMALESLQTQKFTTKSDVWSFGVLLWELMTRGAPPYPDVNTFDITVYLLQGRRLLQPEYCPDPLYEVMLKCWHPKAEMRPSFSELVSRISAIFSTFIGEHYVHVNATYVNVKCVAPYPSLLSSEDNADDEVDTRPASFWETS

Row | SMILES | IC50
1 | Fc1ccc(Cl)c(C2(c3n[nH]c4ncc(-c5cnn(C6CCNCC6)c5)cc34)CC2)c1Cl [3-(1-(2,6-dichloro-3-fluorophenyl)cyclopropyl)-5-(1-(piperidin-4-yl)-1H-pyrazol-4-yl)-1H-pyrazolo[3,4-b]pyridine (10)] | 47.4 nM
2 | O=C(NCc1ccc(F)cc1)Nc1ccc(Oc2ccnc3[nH]c(-c4cccnc4)cc23)c(F)c1 [3-(3-fluoro-4-{[2-(pyridin-3-yl)-1H-pyrrolo[2,3-b]pyridin-4-yl]oxy}phenyl)-1-[(4-fluorophenyl)methyl]urea (2a)] | 2 nM
3 | CC(c1c(Cl)ccc(F)c1Cl)c1c(Cl)[nH]c2ncc(-c3cnn(C4CCNCC4)c3)cc12 (centres undefined) [4-(4-{2-chloro-3-[1-(2,6-dichloro-3-fluorophenyl)ethyl]-1H-pyrrolo[2,3-b]pyridin-5-yl}-1H-pyrazol-1-yl)piperidine (7)] | 982 nM
4 | c1ccc(-c2cnc3nnc(C4(c5ccc6ncccc6c5)CC4)n3n2)cc1 [6-(1-{6-phenyl-[1,2,4]triazolo[4,3-b][1,2,4]triazin-3-yl}cyclopropyl)quinoline (5)] | 13 nM
5 | O=C(NCc1ccc(F)cc1)Nc1ccc(Oc2ccnc3[nH]ccc23)c(F)c1 [3-(3-fluoro-4-{1H-pyrrolo[2,3-b]pyridin-4-yloxy}phenyl)-1-[(4-fluorophenyl)methyl]urea (2)] | 11 nM
6 | CC(c1c(Cl)ccc(F)c1Cl)c1c[nH]c2ncc(-c3cnn(C4CCNCC4)c3)cc12 (centres undefined) [4-(4-{3-[1-(2,6-dichloro-3-fluorophenyl)ethyl]-1H-pyrrolo[2,3-b]pyridin-5-yl}-1H-pyrazol-1-yl)piperidine (1)] | < 100 nM
7 | Cc1[nH]c2ncc(-c3cnn(C4CCNCC4)c3)cc2c1C(C)c1c(Cl)ccc(F)c1Cl (centres undefined) [3-(1-(2,6-dichloro-3-fluorophenyl)ethyl)-2-methyl-5-(1-(piperidin-4-yl)-1H-pyrazol-4-yl)-1H-pyrrolo[2,3-b]pyridine (6)] | 286 nM
8 | Fc1ccc(Cl)c(Sc2n[nH]c3ncc(-c4cnn(C5CCNCC5)c4)cc23)c1Cl [3-((2,6-dichloro-3-fluorophenyl)thio)-5-(1-(piperidin-4-yl)-1H-pyrazol-4-yl)-1H-pyrazolo[3,4-b]pyridine (9)] | 22.8 nM
9 | CC(Sc1cc(-c2cnn(C3CCNCC3)c2)cnc1N)c1c(Cl)ccc(F)c1Cl (centres undefined) [3-{[1-(2,6-dichloro-3-fluorophenyl)ethyl]sulfanyl}-5-[1-(piperidin-4-yl)-1H-pyrazol-4-yl]pyridin-2-amine (11b)] | 51.2 nM

Reference: BindingDB's records for doi:10.1016/j.bioorg.2016.02.009 (Tianjin University of Science and Technology, 2016)
